Test in all cases: TR-FRET enzymatic activity assay against PI3K isoforms
Common to all, as to format: biochemical
Background: TR-FRET usually uses a lanthanide donor and a delayed reading to cut background.

One assay concerns the target PI3Kβ (Homo sapiens (Human), UniProt P42338). Conditions: PI3Kβ, TR-FRET, 2×Km ATP, 30 minutes at 25° C. The source says: (§1) The compounds of formula (I) were characterized for their enzymatic activity against the PI3K isoforms. […] TR-FRET monitored the formation of 3,4,5-inositol triphosphate molecule that competed with fluorescently labeled PIP3 for binding to the GRP-1 pleckstrin homology domain protein.

The target in a further assay is PI3Kγ (Homo sapiens (Human), UniProt P48736). The settings on record: 2×Km ATP, 30 minutes at 25° C.
Text: as §1

The next assay deals with PI3Kδ (Homo sapiens (Human), UniProt O00329). Conditions: 2×Km ATP, 30 minutes at 25° C.
Text: as §1

PI3Kγ, sequence (P48736 whole entry): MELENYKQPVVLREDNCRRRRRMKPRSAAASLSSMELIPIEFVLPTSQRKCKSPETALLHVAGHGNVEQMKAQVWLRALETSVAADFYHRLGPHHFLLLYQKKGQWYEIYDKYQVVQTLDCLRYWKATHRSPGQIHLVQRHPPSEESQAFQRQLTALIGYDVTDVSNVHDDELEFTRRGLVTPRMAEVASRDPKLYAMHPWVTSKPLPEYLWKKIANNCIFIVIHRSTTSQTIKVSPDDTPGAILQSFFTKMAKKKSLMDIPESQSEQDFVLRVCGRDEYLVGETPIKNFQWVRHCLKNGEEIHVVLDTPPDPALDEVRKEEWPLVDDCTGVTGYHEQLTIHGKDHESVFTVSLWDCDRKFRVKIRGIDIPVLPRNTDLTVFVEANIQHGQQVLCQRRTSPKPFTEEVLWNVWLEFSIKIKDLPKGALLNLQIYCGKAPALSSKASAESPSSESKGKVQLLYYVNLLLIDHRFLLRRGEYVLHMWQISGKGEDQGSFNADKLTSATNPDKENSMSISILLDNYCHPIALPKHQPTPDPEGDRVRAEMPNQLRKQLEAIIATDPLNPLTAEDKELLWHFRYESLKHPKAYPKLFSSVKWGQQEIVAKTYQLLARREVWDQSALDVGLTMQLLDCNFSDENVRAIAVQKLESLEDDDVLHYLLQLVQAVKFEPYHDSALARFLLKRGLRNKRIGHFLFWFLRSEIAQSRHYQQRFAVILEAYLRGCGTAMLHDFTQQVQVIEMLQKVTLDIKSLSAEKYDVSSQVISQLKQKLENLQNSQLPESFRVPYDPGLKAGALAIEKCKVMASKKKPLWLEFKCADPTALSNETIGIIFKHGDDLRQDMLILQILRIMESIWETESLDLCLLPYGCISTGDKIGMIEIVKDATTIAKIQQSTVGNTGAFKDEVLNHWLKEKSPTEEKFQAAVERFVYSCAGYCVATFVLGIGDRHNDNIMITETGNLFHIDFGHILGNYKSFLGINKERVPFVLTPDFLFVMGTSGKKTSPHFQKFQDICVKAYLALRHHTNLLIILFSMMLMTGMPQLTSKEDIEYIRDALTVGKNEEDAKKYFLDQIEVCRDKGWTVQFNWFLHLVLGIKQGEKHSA
PI3Kβ, sequence (P42338 whole entry, the tested form may be a part, canonical isoform): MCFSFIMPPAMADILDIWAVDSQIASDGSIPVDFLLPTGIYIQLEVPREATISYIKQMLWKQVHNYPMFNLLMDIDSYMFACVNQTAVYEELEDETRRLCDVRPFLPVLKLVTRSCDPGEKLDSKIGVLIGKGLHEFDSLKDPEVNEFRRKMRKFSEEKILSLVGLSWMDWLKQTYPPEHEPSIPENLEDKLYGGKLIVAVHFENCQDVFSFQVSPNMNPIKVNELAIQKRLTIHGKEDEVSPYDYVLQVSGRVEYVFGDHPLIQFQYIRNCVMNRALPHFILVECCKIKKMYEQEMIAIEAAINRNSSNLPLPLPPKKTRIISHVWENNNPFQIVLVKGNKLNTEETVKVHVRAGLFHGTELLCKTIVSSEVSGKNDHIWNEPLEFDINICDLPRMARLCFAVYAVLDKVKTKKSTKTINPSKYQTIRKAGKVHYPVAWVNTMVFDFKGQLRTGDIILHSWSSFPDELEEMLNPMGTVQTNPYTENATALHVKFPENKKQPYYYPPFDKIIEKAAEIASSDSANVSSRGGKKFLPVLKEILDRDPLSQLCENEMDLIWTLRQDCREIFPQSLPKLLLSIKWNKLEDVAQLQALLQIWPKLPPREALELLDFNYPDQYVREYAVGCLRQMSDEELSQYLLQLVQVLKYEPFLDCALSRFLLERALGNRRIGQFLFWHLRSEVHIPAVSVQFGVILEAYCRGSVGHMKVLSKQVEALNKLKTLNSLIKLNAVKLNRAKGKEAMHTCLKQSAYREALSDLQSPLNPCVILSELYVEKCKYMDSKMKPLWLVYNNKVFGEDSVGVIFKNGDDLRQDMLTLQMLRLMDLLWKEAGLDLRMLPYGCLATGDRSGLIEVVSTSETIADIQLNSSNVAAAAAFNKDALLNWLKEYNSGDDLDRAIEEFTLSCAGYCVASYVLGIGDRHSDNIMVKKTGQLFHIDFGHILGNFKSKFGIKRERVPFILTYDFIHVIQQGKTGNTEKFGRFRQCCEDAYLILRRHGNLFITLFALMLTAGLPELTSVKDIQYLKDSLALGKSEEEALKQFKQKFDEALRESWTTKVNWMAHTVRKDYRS
PI3Kβ, sequence (P27986 whole entry partner, the tested form may be a part, canonical isoform): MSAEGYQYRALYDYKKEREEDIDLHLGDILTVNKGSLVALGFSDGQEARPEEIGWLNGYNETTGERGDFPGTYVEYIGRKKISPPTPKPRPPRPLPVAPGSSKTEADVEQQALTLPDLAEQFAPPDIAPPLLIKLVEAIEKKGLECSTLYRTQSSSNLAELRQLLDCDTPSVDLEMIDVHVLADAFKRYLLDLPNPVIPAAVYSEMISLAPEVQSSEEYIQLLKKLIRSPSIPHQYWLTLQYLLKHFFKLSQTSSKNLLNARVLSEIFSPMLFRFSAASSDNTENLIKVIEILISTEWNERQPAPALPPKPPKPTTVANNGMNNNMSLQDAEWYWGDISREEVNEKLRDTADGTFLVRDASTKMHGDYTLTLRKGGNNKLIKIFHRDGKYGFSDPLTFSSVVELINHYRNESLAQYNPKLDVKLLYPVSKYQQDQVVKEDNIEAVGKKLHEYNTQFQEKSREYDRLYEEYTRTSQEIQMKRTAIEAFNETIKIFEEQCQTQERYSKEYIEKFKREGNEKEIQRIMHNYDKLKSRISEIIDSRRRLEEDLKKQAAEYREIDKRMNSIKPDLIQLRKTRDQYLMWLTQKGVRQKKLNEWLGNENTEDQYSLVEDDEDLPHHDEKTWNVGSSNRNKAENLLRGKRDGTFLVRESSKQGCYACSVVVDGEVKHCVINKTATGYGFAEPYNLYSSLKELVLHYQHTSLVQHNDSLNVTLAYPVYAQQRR
PI3Kδ, sequence (O00329 whole entry): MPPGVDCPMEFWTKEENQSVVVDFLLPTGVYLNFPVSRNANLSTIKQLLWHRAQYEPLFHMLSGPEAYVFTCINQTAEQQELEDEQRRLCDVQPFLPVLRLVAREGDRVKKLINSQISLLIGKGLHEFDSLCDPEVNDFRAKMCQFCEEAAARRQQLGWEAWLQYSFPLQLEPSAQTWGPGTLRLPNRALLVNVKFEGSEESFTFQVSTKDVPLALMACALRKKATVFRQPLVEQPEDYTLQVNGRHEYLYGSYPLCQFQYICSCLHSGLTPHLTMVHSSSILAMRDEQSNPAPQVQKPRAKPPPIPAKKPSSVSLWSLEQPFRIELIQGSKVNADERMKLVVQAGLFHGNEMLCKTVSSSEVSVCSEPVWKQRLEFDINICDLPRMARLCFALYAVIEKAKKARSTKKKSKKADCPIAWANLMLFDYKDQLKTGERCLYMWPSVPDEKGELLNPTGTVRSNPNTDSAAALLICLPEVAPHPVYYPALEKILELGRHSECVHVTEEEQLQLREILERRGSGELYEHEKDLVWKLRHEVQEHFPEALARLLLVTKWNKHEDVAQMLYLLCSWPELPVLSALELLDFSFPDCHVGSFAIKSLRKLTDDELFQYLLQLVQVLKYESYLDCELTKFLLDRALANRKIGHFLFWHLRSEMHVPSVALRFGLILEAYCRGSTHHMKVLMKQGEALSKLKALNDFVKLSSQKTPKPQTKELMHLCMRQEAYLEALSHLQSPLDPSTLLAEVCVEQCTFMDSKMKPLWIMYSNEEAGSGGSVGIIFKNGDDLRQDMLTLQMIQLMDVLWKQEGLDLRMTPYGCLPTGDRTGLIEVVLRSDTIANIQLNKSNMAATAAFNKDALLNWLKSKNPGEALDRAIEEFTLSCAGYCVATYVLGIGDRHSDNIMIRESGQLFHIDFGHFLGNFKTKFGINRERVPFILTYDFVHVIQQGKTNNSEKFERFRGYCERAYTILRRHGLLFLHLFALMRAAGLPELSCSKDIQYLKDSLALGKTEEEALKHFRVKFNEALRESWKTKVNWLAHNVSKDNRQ
PI3Kδ, sequence (P27986 whole entry partner): as the sequence (P27986 whole entry partner, the tested form may be a part, canonical isoform) above

For the molecule `NCCCn1c([C@@H](Nc2ncnc3ccc(Cl)nc23)C2CC2)nc2cccc(Cl)c2c1=O` [Compound 48, (S)-3-(3-aminopropyl)-5-chloro-2-(((6-chloropyrido[3,2-d]pyrimidin-4-yl)amino)(cyclopropyl)methyl)quinazolin-4(3H)-one], the IC50 (as a rule, the concentration that inhibits the measured activity by half) came out at 4 nM on PI3Kβ, 900 nM on PI3Kγ and 4 nM at PI3Kδ.
Turning to `Cc1nc(N)nc(N[C@H](c2nc3cccc(Cl)c3c(=O)n2CCCN)C2CC2)c1C#N` [Compound 49, (S)-2-amino-4-(((3-(3-aminopropyl)-5-chloro-4-oxo-3,4-dihydroquinazolin-2-yl)(cyclopropyl)methyl)amino)-6-methylpyrimidine-5-carbonitrile], the IC50 at PI3Kβ stood at 1 nM; on PI3Kγ it was 750 nM; on PI3Kδ, 1 nM.
As for `C[C@H](NC(=O)c1nc(Br)c(N)nc1N)c1nc2cccc(Cl)c2c(=O)n1CCCN` [Compound 50, (S)-3,5-diamino-N-(1-(3-(3-aminopropyl)-5-chloro-4-oxo-3,4-dihydroquinazolin-2-yl)ethyl)-6-bromopyrazine-2-carboxamide], the concentration for half-maximal inhibition (IC50) against PI3Kβ was 75 nM; on PI3Kγ, 4600 nM; against PI3Kδ, 71 nM.
For `CC(=O)NCCCn1c([C@H](C)Nc2ncnc(N)c2C#N)nc2cccc(Cl)c2c1=O` [Compound 51, (S)—N-(3-(2-(1-((6-amino-5-cyanopyrimidin-4-yl)amino)ethyl)-5-chloro-4-oxoquinazolin-3(4H)-yl)propyl)acetamide], the IC50 was determined as 110 nM on PI3Kβ, 5500 nM on PI3Kγ and 8 nM against PI3Kδ.
Regarding `CC(C)(C)C(=O)NCCCn1c([C@@H](Nc2nc(N)nc(N)c2C#N)C2CC2)nc2cccc(Cl)c2c1=O` [Compound 52, (S)—N-(3-(5-chloro-2-(cyclopropyl((2,6-diamino-5-cyanopyrimidin-4-yl)amino)methyl)-4-oxoquinazolin-3(4H)-yl)propyl)pivalamide], the 50% inhibitory concentration (IC50) on PI3Kβ was found to be 29 nM; against PI3Kγ, 1200 nM; at PI3Kδ, 4 nM.
In the case of `CC(=O)NCCCn1c([C@@H](Nc2nc(N)nc(N)c2C#N)C2CC2)nc2cccc(Cl)c2c1=O` [Compound 53, (S)—N-(3-(5-chloro-2-(cyclopropyl((2,6-diamino-5-cyanopyrimidin-4-yl)amino)methyl)-4-oxoquinazolin-3(4H)-yl)propyl)acetamide], the concentration for half-maximal inhibition (IC50) against PI3Kβ was 9 nM; against PI3Kγ it was 190 nM; against PI3Kδ, 2 nM.
As for `N#Cc1c(N)nc(N)nc1N[C@H](c1nc2cccc(Cl)c2c(=O)n1CCCNC1CCC1)C1CC1` [Compound 54, (S)-2,4-diamino-6-(((5-chloro-3-(3-(cyclobutylamino)propyl)-4-oxo-3,4-dihydroquinazolin-2-yl)(cyclopropyl)methyl)amino)pyrimidine-5-carbonitrile], the half-inhibitory concentration (IC50) on PI3Kβ turned out to be 5 nM; at PI3Kγ, 830 nM; against PI3Kδ it was 0.4 nM.
For `N#Cc1c(N)nc(N)nc1N[C@H](c1nc2cccc(Cl)c2c(=O)n1CCCNC1COC1)C1CC1` [Compound 55, (S)-2,4-diamino-6-(((5-chloro-3-(3-(oxetan-3-ylamino)propyl)-4-oxo-3,4-dihydroquinazolin-2-yl)(cyclopropyl)methyl)amino)pyrimidine-5-carbonitrile], the IC50 on PI3Kβ was 4 nM; on PI3Kγ, 280 nM; against PI3Kδ, 0.5 nM.
The like results for `N#Cc1c(N)nc(N)nc1N[C@H](c1nc2cccc(Cl)c2c(=O)n1CCCNC1CCC(F)(F)CC1)C1CC1` [Compound 56, (S)-2,4-diamino-6-(((5-chloro-3-(3-((4,4-difluorocyclohexyl)amino)propyl)-4-oxo-3,4-dihydroquinazolin-2-yl)(cyclopropyl)methyl)amino)pyrimidine-5-carbonitrile] were, in that order, 4 nM, 540 nM and 0.4 nM.
The like results for `C[C@H](Nc1ncnc(N)c1C#N)c1nc2cccc(Cl)c2c(=O)n1CCCN(C)C` [Compound 57, (S)-4-amino-6-((1-(5-chloro-3-(3-(dimethylamino)propyl)-4-oxo-3,4-dihydroquinazolin-2-yl)ethyl)amino)pyrimidine-5-carbonitrile] were, in that order, 480 nM, no less than 10000 nM and 6 nM.
The like results for `C[C@H](Nc1nc(N)nc(N)c1C#N)c1nc2cccc(Cl)c2c(=O)n1CCN(C)C` [Compound 58, (S)-2,4-diamino-6-((1-(5-chloro-3-(2-(dimethylamino)ethyl)-4-oxo-3,4-dihydroquinazolin-2-yl)ethyl)amino)pyrimidine-5-carbonitrile] were, in that order, 460 nM, 6600 nM and 24 nM.
For `NC(=O)CCCCn1c([C@@H](Nc2nc(N)nc(N)c2Cl)C2CC2)nc2cccc(Cl)c2c1=O` [Compound 59, (S)-5-(5-chloro-2-(cyclopropyl((2,6-diamino-5-chloropyrimidin-4-yl)amino)methyl)-4-oxoquinazolin-3(4H)-yl)pentanamide], the IC50 on PI3Kβ stood at 500 nM; against PI3Kγ, 2200 nM; at PI3Kδ, 8 nM.
`C[C@H](Nc1nc(N)nc(N)c1C#N)c1nc2cccc(Cl)c2c(=O)n1CCCN(C)Cc1ccccc1` [Compound 60, (S)-2,4-diamino-6-((1-(3-(3-(benzyl(methyl)amino)propyl)-5-chloro-4-oxo-3,4-dihydroquinazolin-2-yl)ethyl)amino)pyrimidine-5-carbonitrile]: the concentration for half-maximal inhibition (IC50) against PI3Kβ stood at 150 nM; against PI3Kγ, 6400 nM; against PI3Kδ it was 4 nM.
With `Cc1nc(N)nc(N[C@@H](C)c2nc3cccc(Cl)c3c(=O)n2CCCN(C)Cc2ccccc2)c1C#N` [Compound 61, (S)-2-amino-4-((1-(3-(3-(benzyl(methyl)amino)propyl)-5-chloro-4-oxo-3,4-dihydroquinazolin-2-yl)ethyl)amino)-6-methylpyrimidine-5-carbonitrile], the values for the IC50 against PI3Kβ, against PI3Kγ and on PI3Kδ were 140 nM, 6600 nM and 7 nM, respectively.
On the same counts, the results for `C[C@H](Nc1nc(N)nc(N)c1C#N)c1nc2cccc(Cl)c2c(=O)n1CCCN(C)CC(F)(F)F` [Compound 62, (S)-2,4-diamino-6-((1-(5-chloro-3-(3-(methyl(2,2,2-trifluoroethyl)amino)propyl)-4-oxo-3,4-dihydroquinazolin-2-yl)ethyl)amino)pyrimidine-5-carbonitrile] are 320 nM, 960 nM and 4 nM.
On the same counts, the results for `N#CCCn1c([C@@H](Nc2nc(N)nc(N)c2Cl)C2CC2)nc2cccc(Cl)c2c1=O` [Compound 63, (S)-3-(5-chloro-2-(cyclopropyl((2,6-diamino-5-chloropyrimidin-4-yl)amino)methyl)-4-oxoquinazolin-3(4H)-yl)propanenitrile] are 640 nM, 800 nM and 2 nM.
On the same counts, the results for `N#Cc1c(N)nc(N)nc1N[C@H](c1nc2cccc(Cl)c2c(=O)n1CCCCC(N)=O)C1CC1` [Compound 64, (S)-5-(5-chloro-2-(cyclopropyl((2,6-diamino-5-cyanopyrimidin-4-yl)amino)methyl)-4-oxoquinazolin-3(4H)-yl)pentanamide] are 12 nM, 110 nM and 1 nM.
For the molecule `N#Cc1c(N)nc(N)nc1N[C@H](c1nc2c(Cl)ccc(Cl)c2c(=O)n1CCCC(N)=O)C1CC1` [Compound 65, (S)-4-(5,8-dichloro-2-(cyclopropyl((2,6-diamino-5-cyanopyrimidin-4-yl)amino)methyl)-4-oxoquinazolin-3(4H)-yl)butanamide], the values for the IC50 against PI3Kβ, against PI3Kγ and at PI3Kδ were 7 nM, 470 nM and 1 nM, respectively.
On the same counts, the results for `N#Cc1c(N)nc(N)nc1N[C@H](c1nc2cccc(Cl)c2c(=O)n1CCCC(N)=O)C1CC1` [Compound 66, (S)-4-(5-chloro-2-(cyclopropyl((2,6-diamino-5-cyanopyrimidin-4-yl)amino)methyl)-4-oxoquinazolin-3(4H)-yl)butanamide] are 4 nM, 97 nM and 1 nM.
Regarding `NC(=O)CCn1c([C@@H](Nc2nc(N)nc(N)c2Cl)C2CC2)nc2cccc(Cl)c2c1=O` [Compound 68, (S)-3-(5-chloro-2-(cyclopropyl((2,6-diamino-5-chloropyrimidin-4-yl)amino)methyl)-4-oxoquinazolin-3(4H)-yl)propanamide], the IC50 against PI3Kβ turned out to be 520 nM; against PI3Kγ, 1000 nM; at PI3Kδ, 5 nM.
On to `NC(=O)CCCn1c([C@@H](Nc2nc(N)nc(N)c2Cl)C2CC2)nc2cccc(Cl)c2c1=O` [Compound 69, (S)-4-(5-chloro-2-(cyclopropyl((2,6-diamino-5-chloropyrimidin-4-yl)amino)methyl)-4-oxoquinazolin-3(4H)-yl)butanamide], for which the values for the concentration for half-maximal inhibition (IC50) at PI3Kβ, on PI3Kγ and against PI3Kδ were 49 nM, 1300 nM and 2 nM, respectively.
As to `C[C@H](Nc1ncnn2ccnc12)c1nc2cccc(Cl)c2c(=O)n1CCCN` [Compound 71, (S)-3-(3-aminopropyl)-5-chloro-2-(1-(imidazo[2,1-f][1,2,4]triazin-4-ylamino)ethyl)quinazolin-4(3H)-one], the half-maximal inhibitory concentration (IC50) on PI3Kβ is 240 nM; at PI3Kγ, no less than 10000 nM; against PI3Kδ, 34 nM.
Consider `C[C@H](Nc1ncnc2scnc12)c1nc2cccc(Cl)c2c(=O)n1CCCN` [Compound 72, (S)-3-(3-aminopropyl)-5-chloro-2-(1-(thiazolo[5,4-d]pyrimidin-7-ylamino)ethyl)quinazolin-4(3H)-one], for which the 50% inhibitory concentration (IC50) on PI3Kβ worked out at 35 nM; at PI3Kγ, 7900 nM; against PI3Kδ it was 12 nM.

The values are drawn from patent publication US11021467B2, “Phosphatidylinositol 3-kinase inhibitors” (Gilead Sciences, Inc., priority 2014, dated 2021).
